Measurements published in ChEMBL document CHEMBL4480383, “Synthesis of saccharocin from apramycin and evaluation of its ribosomal selectivity” (Medchemcomm, 2019).
pIC50: −log10 of the molar value. In brackets after ≈: the same amount, converted by molar mass.

How the values were obtained:
[1] = target: Bacterial 70S ribosome; assay: Antiribosomal activity against wild type bacterial ribosomes assessed as inhibition of luciferase production by cell-free translation assay; assay type: subcellular, Bacteria
[2] = Antiribosomal activity against humanized bacterial ribosome incorporating complete decoding A site from human mitochondrial ribosome Mit13 assessed as inhibition of luciferase production by cell-free translation assay
[3] = Antiribosomal activity against humanized bacterial ribosome incorporating A1555G mutant of human mitochondrial ribosome assessed as inhibition of luciferase production by cell-free translation assay
[4] = Antiribosomal activity against humanized bacterial ribosome incorporating human cytoplasmic ribosome Cyt14 assessed as inhibition of luciferase production by cell-free translation assay
[5] = Selectivity ratio of IC50 for antiribosomal activity against humanized bacterial ribosome incorporating complete decoding A site from human mitochondrial ribosome Mit13 to IC50 for antiribosomal activity against wild type bacterial ribosomes
[6] = Selectivity ratio of IC50 for antiribosomal activity against humanized bacterial ribosome incorporating A1555G mutant of human mitochondrial ribosome to IC50 for antiribosomal activity against wild type bacterial ribosomes
[7] = Selectivity ratio of IC50 for antiribosomal activity against humanized bacterial ribosome incorporating human cytoplasmic ribosome Cyt14 to IC50 for antiribosomal activity against wild type bacterial ribosomes
[8] = system: Escherichia coli; assay: Antibacterial activity against Escherichia coli AG001; assay type: functional
[9] = system: Klebsiella pneumoniae; assay: Antibacterial activity against Klebsiella pneumoniae AG215; assay type: functional
[10] = system: Enterobacter cloacae; assay: Antibacterial activity against Enterobacter cloacae AG290; assay type: functional
[11] = system: Acinetobacter baumannii; assay: Antibacterial activity against Acinetobacter baumannii AG309; assay type: functional
[12] = system: Pseudomonas aeruginosa; assay: Antibacterial activity against Pseudomonas aeruginosa AG220; assay type: functional
[13] = system: Staphylococcus aureus; assay: Antibacterial activity against Methicillin-resistant Staphylococcus aureus AG038; assay type: functional

SMILES | pIC50 [1] | IC50 [2] [µg/mL] | IC50 [3] [µg/mL] | IC50 [4] [µg/mL] | Ratio IC50 [5] | Ratio IC50 [6] | Ratio IC50 [7] | Activity [8] [µg/mL] | Activity [9] [µg/mL] | Activity [10] [µg/mL] | Activity [11] [µg/mL] | Activity [12] [µg/mL] | Activity [13] [µg/mL]
CN[C@@H]1[C@@H](O[C@H]2O[C@H](CO)[C@@H](O)[C@H](O)[C@H]2O)O[C@H]2C[C@@H](N)[C@@H](O[C@H]3[C@H](O)[C@@H](O)[C@H](N)C[C@@H]3N)O[C@@H]2[C@@H]1O | 6.53 | > 500 | 307 (≈ 568 µM) | 437 (≈ 808 µM) | > 3120 | 1920 | 2730 | 8 to 16 | 4 | 4 to 8 | 8 | 8 to 16 | 32
CN[C@@H]1[C@@H](O[C@H]2O[C@H](CO)[C@@H](N)[C@H](O)[C@H]2O)O[C@H]2C[C@@H](N)[C@@H](O[C@H]3[C@H](O)[C@@H](O)[C@H](N)C[C@@H]3N)O[C@@H]2[C@@H]1O | 6.84 | 67 (≈ 124 µM) | 40 (≈ 74.1 µM) | 69 (≈ 128 µM) | 859 | 513 | 885 | 4 | 1 to 2 | 2 to 4 | 4 | 4 | 4
